Usually IC50 stands for the point on the concentration scale where inhibition reaches its midpoint. Higher therefore signals a need for much substance.

The assay has as its target SARS-CoV-2 Main Protease (SARS-CoV-2) (UniProt P0DTD1).

Several values for one entry are separate records, joined by “and”; a condition that tells them apart may be missing. Identical values can stand only once.

Compound `O=C(Nc1cncc2ccccc12)C1CCN(Cc2cnc[nH]2)c2ccc(Cl)cc21` (centres undefined) displayed a 50% inhibitory concentration (IC50) of 1.12 µM. For `CNC(=O)CN1CC(C)(C(=O)Nc2cncc3cc(S(C)(=O)=O)ccc23)c2cc(Cl)ccc2S1(=O)=O` (centres undefined), the IC50 was 0.131 µM and 0.189 µM. In turn, `O=C(Cc1cc(Cl)cc(Nc2ccc(F)cc2Br)c1)Nc1cncc2ccccc12` registered an IC50 of 2.04 µM. On to `Cn1c(NC(=O)c2cccnc2-n2cccn2)nc2cc(F)ccc21`, for which the IC50 was > 99.5 µM.

`CC(C)(C)c1ccc(N(C(=O)c2cn[nH]c2)C(C(=O)NCCc2cccc(F)c2)c2cccnc2)cc1` (centres undefined) showed a 50% inhibitory concentration (IC50) of 5.83 µM.

As to `O=C(Nc1cncc2ccncc12)C1CCOc2cc(F)c(Cl)cc21` (centres undefined), the half-maximal inhibitory concentration (IC50) came to 1.1 µM.

Turning to `O=C(NCc1ccccc1)[C@H]1CN(C(=O)CCl)CCN1S(=O)(=O)c1ccsc1` (stereo in doubt), the IC50 stood at 0.621 µM.

Compound `N#Cc1cc(Cl)c(Nc2cc(Cl)cc(CC(=O)Nc3cncc4ccccc34)c2)c(Cl)c1` registered a half-maximal inhibitory concentration (IC50) of 1.79 µM. As for `COC(=O)c1cc(/C=c2\s/c(=C(/C#N)C(=O)NC(C)C)n(-c3ccc(OC)c(F)c3)c2=O)oc1C`, the IC50 was > 99.5 µM. Compound `CNC(=O)CN1CC(C(=O)Nc2cncc3cccc(Cl)c23)c2cc(Cl)ccc2C1=O` (centres undefined) gave an IC50 of 0.0917 µM. Regarding `CC(C)(C)c1ccc(N(C(=O)c2cocn2)C(C(=O)NCCc2cccc(F)c2)c2ccnnc2)cc1` (centres undefined), the IC50 is 2.05 µM.

Regarding `O=C(Cc1cccc(Cl)c1)Nc1noc2ccccc12`, the IC50 was > 99.5 µM.

In turn, `C=CC(=O)N(c1ccc(C(C)(C)C)cc1)C(C(=O)NC)c1cccnc1` (centres undefined) displayed a 50% inhibitory concentration (IC50) of 35.7 µM. To `O=c1[nH]c(-c2nnc[nH]2)nc2cc(-c3ccccc3Cl)sc12` belongs > 99.5 µM; to `COC1(c2cccc(Cl)c2)CCN(c2cncc3ccccc23)C1=O` (centres undefined), 0.467 µM; to `N#CC1(CS(=O)(=O)N2Cc3ccc(Cl)cc3C3(CCN(c4cncc5ccc(C(F)F)cc45)C3=O)C2)CC1` (centres undefined), 0.354 µM. On to `CC1(c2ccc(N(C(=O)c3cocn3)C(C(=O)NCCc3cccc(F)c3)c3cccnc3)cc2)OCCO1` (centres undefined), for which the IC50 came to 83.1 µM. `CC(C)(O)c1ccc(N(C(=O)c2cocn2)C(C(=O)NCCc2cccc(F)c2)c2cccnc2)cc1` (centres undefined) showed an IC50 of 26.5 µM. To `O=C(Nc1ccc2nccnc2c1)c1csc2cncn12` belongs > 99.5 µM. As to `O=C(NCCc1cccc(F)c1)C(c1cccnc1)N(C(=O)c1cnc[nH]1)c1ccc(C2COC2)cc1` (centres undefined), the half-inhibitory concentration (IC50) was 22.7 µM. Compound `COC(=O)[C@@H]1C[C@H](NC(=O)C(c2cccnc2)N(C(=O)c2cocn2)c2ccc(C(C)(C)C)cc2)CN1C(=O)OC(C)(C)C` (stereo in doubt) gave an IC50 of 2.66 µM. Next, `Clc1scc(CN2CCC(c3ccn[nH]3)CC2)c1Cl`: > 99.5 µM; `CC(=O)c1ccccc1C(=O)N(c1ccc(C(C)(C)C)cc1)C(C(=O)NCCc1cccc(F)c1)c1cccnc1` (centres undefined): > 99.5 µM; `O=C(CCl)N1CCN(Cc2cnc(Cc3ccccc3)s2)CC1`: 29.8 µM. For the compound `CNC(=O)Nc1ccc(N(C(=O)c2cocn2)C(C(=O)NCCc2cccc(F)c2)c2cccnc2)cc1` (centres undefined), the 50% inhibitory concentration (IC50) was > 99.5 µM. Regarding `CC(C)(C)c1ccc(N(C(=O)c2ccco2)C(C(=O)NCc2ccccc2)c2cccnc2)cc1` (centres undefined), the IC50 came to 4.36 µM. For `CC(C(=O)OC1CCCN(Cc2cccc(C(F)(F)F)c2)C1=O)n1cnc(C#N)n1` (centres undefined), the IC50 is 8.45 µM and 10.2 µM. As for `O=C(Cc1cc(Cl)cc(Nc2c(F)cc(Br)cc2F)c1)Nc1cncc2ccccc12`, the IC50 amounted to 1.54 µM. As to `Cc1ccc(C(Cc2ccccc2)C(=O)Nc2nnn3ccccc23)cc1` (centres undefined), the IC50 was > 99.5 µM. On to `O=C(Cc1cc(Cl)cc(Nc2cccc(Br)c2)c1)Nc1cncc2ccccc12`, for which the half-inhibitory concentration (IC50) is 2.07 µM. In the case of `O=C1CC(C(=O)N2CCN(c3cccc(Cl)c3)CC2)c2ccccc2N1` (centres undefined), the IC50 is 20.9 µM. For `O=C(NNC(=O)c1cccc(-n2nccc2C(F)(F)F)c1)OCc1ccccc1`, the 50% inhibitory concentration (IC50) is > 99.5 µM. In the case of `O=C(CCl)N1CCN(C(c2ccccc2)C2CCOCC2)CC1` (centres undefined), the IC50 was 28.4 µM and 15.1 µM. On to `C=CC(=O)N(c1cc(C(C)(C)C)on1)C(C(=O)Nc1cccc(CC)c1)c1cccnc1` (centres undefined), for which the half-maximal inhibitory concentration (IC50) was > 99 µM.

With `N#Cc1cccc(NC(=O)[C@@H]2CN(C(=O)CCl)CCN2S(=O)(=O)c2ccsc2)c1` (stereo in doubt), the concentration for half-maximal inhibition (IC50) is 0.416 µM. `Cc1ccnc(NC(=O)C2CCOc3ccc(Cl)cc32)c1N` (centres undefined) returned a 50% inhibitory concentration (IC50) of 71.6 µM.

For `O=C(O)CN1C(=O)C(=O)c2cc([N+](=O)[O-])ccc21`, the IC50 is > 99.5 µM.

On to `Cn1c(C(NC(=O)Cc2cc3ccccc3[nH]2)c2cccc(Cl)c2)nc2ccccc21` (centres undefined), for which the IC50 was > 99.5 µM.

The compound `Cc1ccc2c(NC(=O)Cc3cccc(Cl)c3)cncc2c1` gave an IC50 of 1.24 µM.

Turning to `CSc1ccc(CN(C(=O)c2ccco2)C(C(=O)NCCc2cccc(F)c2)c2cccnc2)cc1C#N` (centres undefined), the IC50 worked out at 54.9 µM. Regarding `CS(=O)(=O)c1ccc2c(NC(=O)C3CN(CC(=O)NC4COC4)C(=O)c4ccc(Cl)cc43)cncc2c1` (centres undefined), the half-inhibitory concentration (IC50) worked out at 0.866 µM. Compound `O=C(Cc1cc(Cl)cc(Nc2ccc(Cl)c(Cl)c2)c1)Nc1cncc2ccccc12` returned a half-inhibitory concentration (IC50) of 2.28 µM. On to `O=C(Cc1cccc(Cl)c1)Nc1cnccc1C(F)(F)F`, for which the IC50 is 18.2 µM and > 9.95 µM. `COc1nccnc1C(C(=O)NCCc1cccc(F)c1)N(C(=O)c1cocn1)c1ccc(C(C)(C)C)cc1` (centres undefined) returned an IC50 of 94.9 µM.

These data come from the COVID Moonshot data (paper PMC7615835).
